Measurements published in US8101605B2, “SHIP1 modulators and methods related thereto” (Aquinox Pharmaceuticals Inc., priority 2009, dated 2012).

Biological target: T1, His-hSHIP1 enzyme (Homo sapiens, UniProt Q92835)
T1 sequence (Q92835 1-1189): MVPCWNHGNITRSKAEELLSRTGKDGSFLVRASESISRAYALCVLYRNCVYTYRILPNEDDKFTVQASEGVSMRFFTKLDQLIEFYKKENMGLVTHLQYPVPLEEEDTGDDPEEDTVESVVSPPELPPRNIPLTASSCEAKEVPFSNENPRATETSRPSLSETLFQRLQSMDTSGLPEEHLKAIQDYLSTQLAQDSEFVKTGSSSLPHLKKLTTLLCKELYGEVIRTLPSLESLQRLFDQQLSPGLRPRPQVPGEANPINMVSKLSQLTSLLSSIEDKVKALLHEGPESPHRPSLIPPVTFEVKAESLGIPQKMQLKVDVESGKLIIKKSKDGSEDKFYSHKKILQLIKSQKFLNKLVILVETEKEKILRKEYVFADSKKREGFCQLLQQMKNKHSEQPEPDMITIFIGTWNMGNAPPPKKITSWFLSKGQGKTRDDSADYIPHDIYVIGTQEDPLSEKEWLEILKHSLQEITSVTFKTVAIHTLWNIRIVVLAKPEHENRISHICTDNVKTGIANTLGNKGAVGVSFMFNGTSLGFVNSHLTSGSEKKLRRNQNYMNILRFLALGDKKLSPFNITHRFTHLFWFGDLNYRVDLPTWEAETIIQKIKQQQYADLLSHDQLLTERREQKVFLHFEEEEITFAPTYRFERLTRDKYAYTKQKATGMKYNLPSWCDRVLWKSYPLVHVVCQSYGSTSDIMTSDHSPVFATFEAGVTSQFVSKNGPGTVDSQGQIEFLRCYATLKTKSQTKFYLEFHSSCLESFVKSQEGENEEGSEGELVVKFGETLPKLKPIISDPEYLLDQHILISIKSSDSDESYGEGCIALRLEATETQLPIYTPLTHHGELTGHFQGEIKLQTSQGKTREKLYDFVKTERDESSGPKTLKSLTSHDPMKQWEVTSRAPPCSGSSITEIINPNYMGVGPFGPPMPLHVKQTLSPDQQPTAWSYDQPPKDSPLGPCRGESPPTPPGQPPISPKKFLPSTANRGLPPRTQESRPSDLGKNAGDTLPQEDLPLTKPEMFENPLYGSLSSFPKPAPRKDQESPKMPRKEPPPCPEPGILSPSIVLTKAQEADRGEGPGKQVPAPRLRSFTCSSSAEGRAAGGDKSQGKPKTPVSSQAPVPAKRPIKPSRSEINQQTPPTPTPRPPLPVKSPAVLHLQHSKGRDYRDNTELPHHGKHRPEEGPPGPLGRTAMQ
Test: His-hSHIP1 phosphatase activity assay (IP4 substrate, Biomol Green)
Format: biochemical
Conditions: percentage increase relative to background; concentrations ≦300 μM
Experimental: Test compounds were dissolved in 95% ethanol to form stock solutions. Before screening, the stock solutions were diluted with Phosphatase Assay Buffer (20 mM Tris-HCL, 10 mM MgCl2 pH 7.5, 0.02% Tween 20) to form working assay solutions that contained 10% ethanol. The assay was carried out on 96-well microtiter plates using a modified procedure of that reported by Ong et al., Blood 110, 1942-1949, 2007 and Yang et al., Org Lett 7, 1073-1076, 2005, both of which references are incorporated herein by reference in their entirety.
Each reaction contained 5 μL of His-hSHIP1 enzyme (15-20 ng), 10 μL of the substrate, 1,3,4,5-inositol tetrakisphosphate (IP4; 50 μM final), 5 μL of Phosphatase Assay Buffer, and 5 μL of test compound at various concentrations in 10% ethanol (0-300 μM final). Control blanks were also prepared by replacing His-hSHIP1 enzyme, IP4, or test compounds with Phosphatase Assay Buffer. After adding the reaction components in a 96-well microtiter plate on ice, the reaction was mixed by briefly shaking the plate vigorously. The reaction was then incubated at 37° C. for 15 min with gentle shaking followed by addition of 100 μL of Biomol Green Reagent (BIOMOL, PA, USA) to terminate the reaction. The free phosphate released from IP4 by His-hSHIP1 bound to the Biomol Green Reagent, turning the solution green in colour. After incubating the mixture for 20 min at room temperature for colour development, the absorbance was read with a SpectraMax Plus 96-well plate reader (Molecular Devices, Sunnyvale, Calif., USA) at a wavelength of 650 nm.
Percent (%) activation in Table 2 is expressed as a percentage increase relative to background. Scoring is expressed as follows: + (<50%); ++ (≧50% but <65%); +++ (≧65%).

Row | Structure (SMILES) | Scoring: percent (%) activation of His-hSHIP1 enzyme
1 | CN1CCN(C(=O)c2cc(O)cc3c2[C@]2(C)CC[C@H]4C(C)(C)CCC[C@]4(C)[C@H]2CS3(=O)=O)CC1 [compound 94, (1R,10R,11S,16S)-5-hydroxy-1,11,15,15-tetramethyl-3-[(4-methylpiperazin-1-yl)carbonyl]-8λ^6-thiatetracyclo[8.8.0.0^2,7.0^11,16]octadeca-2,4,6-triene-8,8-dione] | + (<50%)
2 | CONC(=O)c1cc(O)c2c(c1)S(=O)(=O)C[C@@H]1[C@@]3(C)CCCC(C)(C)[C@@H]3CC[C@@]21C [compound 96, (1R,10R,11S,16S)-3-hydroxy-N-methoxy-1,11,15,15-tetramethyl-8,8-dioxo-8λ^6-thiatetracyclo[8.8.0.0^2,7.0^11,16]octadeca-2,4,6-triene-5-carboxamide] | + (<50%)
3 | CC1(C)CCC[C@]2(C)[C@H]3CS(=O)(=O)c4cc(C(=O)N5CCC(C(=O)O)CC5)cc(O)c4[C@]3(C)CC[C@@H]12 [compound 98, 1-{[(1R,10R,11S,16S)-3-hydroxy-1,11,15,15-tetramethyl-8,8-dioxo-8λ^6-thiatetracyclo[8.8.0.0^2,7.0^11,16]octadeca-2,4,6-trien-5-yl]carbonyl}piperidine-4-carboxylic acid] | + (<50%)
4 | CC1(C)CCC[C@]2(C)[C@H]3CSc4cc(O)cc(O)c4[C@]3(C)CC[C@@H]12 [Compound No. 26, (1R,10R,11S,16S)-1,11,15,15-tetramethyl-8-thiatetracyclo[8.8.0.0^2,7.0^11,16]octadeca-2,4,6-triene-3,5-diol] | + (<50%)
5 | CC1(C)CCC[C@]2(C)[C@H]3CS(=O)(=O)c4cc(O)cc(C(=O)O)c4[C@]3(C)CC[C@@H]12 [compound 65, (1R,10R,11S,16S)-5-hydroxy-1,11,15,15-tetramethyl-8,8-dioxo-8λ^6-thiatetracyclo[8.8.0.0^2,7.0^11,16]octadeca-2,4,6-triene-3-carboxylic acid] | ++ (≧50% but <65%)
6 | COc1cc(O)c2c(c1)[C@]1(C)CC[C@H]3C(C)(C)CCC[C@]3(C)[C@H]1CO2 [Compound No. 44, (1R,10R,11S,16S)-4-methoxy-1,11,15,15-tetramethyl-8-oxatetracyclo[8.8.0.0^2,7.0^11,16]octadeca-2,4,6-trien-6-ol] | ++ (≧50% but <65%)
7 | Cc1cc(O)c2c(c1)SC[C@@H]1[C@@]3(C)CCCC(C)(C)[C@@H]3CC[C@@]21C [Compound No. 15, (1R,10R,11S,16S)-1,5,11,15,15-pentamethyl-8-thiatetracyclo[8.8.0.0^2,7.0^11,16]octadeca-2,4,6-trien-3-ol] | +++ (≧65%)
8 | CC1(C)CCC[C@]2(C)[C@H]3CS(=O)(=O)c4cc(O)cc(C(=O)N5CCNCC5)c4[C@]3(C)CC[C@@H]12 [compound 100, (1R,10R,11S,16S)-5-hydroxy-1,11,15,15-tetramethyl-3-[(piperazin-1-yl)carbonyl]-8λ^6-thiatetracyclo[8.8.0.0^2,7.0^11,16]octadeca-2,4,6-triene-8,8-dione] | + (<50%)

Other lines, results leading:

Row | Scoring: percent (%) activation of His-hSHIP1 enzyme | Structure (SMILES)
9 | + (<50%) | CNC(=O)c1cc2c(cc1O)S(=O)(=O)C[C@@H]1[C@@]3(C)CCCC(C)(C)[C@@H]3CC[C@@]21C [compound 73, (1R,10R,11S,16S)-5-hydroxy-N,1,11,15,15-pentamethyl-8,8-dioxo-8λ^6-thiatetracyclo[8.8.0.0^2,7.0^11,16]octadeca-2,4,6-triene-4-carboxamide]
10 | + (<50%) | CC1(C)CCC[C@]2(C)[C@H]3CS(=O)(=O)c4cc(C(=O)O)cc(C(=O)O)c4[C@]3(C)CC[C@@H]12 [compound 85, (1R,10R,11S,16S)-1,11,15,15-tetramethyl-8,8-dioxo-8λ^6-thiatetracyclo[8.8.0.0^2,7.0^11,16]octadeca-2,4,6-triene-3,5-dicarboxylic acid]
11 | + (<50%) | CONC(=O)c1cc(O)cc2c1[C@]1(C)CC[C@H]3C(C)(C)CCC[C@]3(C)[C@H]1CS2(=O)=O [compound 95, (1R,10R,11S,16S)-5-hydroxy-N-methoxy-1,11,15,15-tetramethyl-8,8-dioxo-8λ^6-thiatetracyclo[8.8.0.0^2,7.0^11,16]octadeca-2,4,6-triene-3-carboxamide]
12 | + (<50%) | COc1cc(OCC(=O)O)cc2c1[C@]1(C)CC[C@H]3C(C)(C)CCC[C@]3(C)[C@H]1CS2(=O)=O [compound 104, 2-{[(1R,10R,11S,16S)-3-methoxy-1,11,15,15-tetramethyl-8,8-dioxo-8^6-thiatetracyclo[8.8.0.0^2,7.0^11,16]octadeca-2,4,6-trien-5-yl]oxy}acetic acid]
13 | + (<50%) | CC1(C)CCC[C@]2(C)[C@H]3CS(=O)(=O)c4cc(O)cc(C(=O)NCC(=O)O)c4[C@]3(C)CC[C@@H]12 [compound 91, 2-{[(1R,10R,11S,16S)-5-hydroxy-1,11,15,15-tetramethyl-8,8-dioxo-8λ^6-thiatetracyclo[8.8.0.0^2,7.0^11,16]octadeca-2,4,6-trien-3-yl]formamido}acetic acid]
14 | + (<50%) | COc1cc(C(=O)O)cc2c1[C@]1(C)CC[C@H]3C(C)(C)CCC[C@]3(C)[C@H]1CS2(=O)=O [compound 80, (1R,10R,11S,16S)-3-methoxy-1,11,15,15-tetramethyl-8,8-dioxo-8λ^6-thiatetracyclo[8.8.0.0^2,7.0^11,16]octadeca-2,4,6-triene-5-carboxylic acid]
15 | +++ (≧65%) | COc1cc(OC)c2c(c1)S(=O)(=O)C[C@@H]1[C@@]3(C)CCCC(C)(C)[C@@H]3CC[C@@]21C [Compound No. 23, (1R,10R,11S,16S)-3,5-dimethoxy-1,11,15,15-tetramethyl-8-thiatetracyclo[8.8.0.0^2,7.0^11,16]octadeca-2,4,6-triene-8,8-dione]
16 | + (<50%) | CC1(C)CCC[C@]2(C)[C@H]3CS(=O)(=O)c4cc(OCC(=O)O)cc(O)c4[C@]3(C)CC[C@@H]12 [compound 105, 2-{[(1R,10R,11S,16S)-3-hydroxy-1,11,15,15-tetramethyl-8,8-dioxo-8^6-thiatetracyclo[8.8.0.0^2,7.0^11,16]octadeca-2,4,6-trien-5-yl]oxy}acetic acid]
17 | + (<50%) | COc1cc(C)cc2c1[C@]1(C)CC[C@H]3C(C)(C)CCC[C@]3(C)[C@H]1CS2 [Compound No. 14, (1R,10R,11S,16S)-3-methoxy-1,5,11,15,15-pentamethyl-8-thiatetracyclo[8.8.0.0^2,7.0^11,16]octadeca-2,4,6-triene]
18 | + (<50%) | COC(=O)CNC(=O)c1cc(O)cc2c1[C@]1(C)CC[C@H]3C(C)(C)CCC[C@]3(C)[C@H]1CS2(=O)=O [compound 90, methyl 2-{[(1R,10R,11S,16S)-5-hydroxy-1,11,15,15-tetramethyl-8,8-dioxo-8λ^6-thiatetracyclo[8.8.0.0^2,7.0^11,16]octadeca-2,4,6-trien-3-yl]formamido}acetate]
